Consider one compound from ChEMBL document CHEMBL1157238, “An unusual oxalylated tetramic acid from the New Zealand basidiomycete Chamonixia pachydermis” (2006).

Structures are written as SMILES.

This experiment deals with Bacillus subtilis. As to the kind of experiment: Antibacterial activity against Bacillus subtilis at 40 ug by agar diffusion assay. The following applies: read-out: IZ. The format is functional.

For `O=C(O)C(=O)C1=C(O)/C(=C/c2ccc(O)c(Cl)c2)NC1=O` [PACHYDERMIN], the zone of inhibition at 40 µg/disc was found to be 1 mm.
